Laboratory results: ChEMBL document CHEMBL1135518 (J Med Chem, 2002)

What was measured:
Rattus norvegicus [1] = test: The increase in the extracellular levels of NA in the rat ventral hippocampus at a dose of 2.5 mg/kg sc measured by in vivo microdialysis; type: functional; conditions: route subcutaneous
[2] = target: T1, Adrenergic receptor alpha-2 (Rattus norvegicus, UniProt P22086+P19328+P22909); test: The binding affinity at the Alpha-2 adrenergic receptor determined using [3H]RX-821002; type: protein assay
T1 sequence (P22086 whole entry): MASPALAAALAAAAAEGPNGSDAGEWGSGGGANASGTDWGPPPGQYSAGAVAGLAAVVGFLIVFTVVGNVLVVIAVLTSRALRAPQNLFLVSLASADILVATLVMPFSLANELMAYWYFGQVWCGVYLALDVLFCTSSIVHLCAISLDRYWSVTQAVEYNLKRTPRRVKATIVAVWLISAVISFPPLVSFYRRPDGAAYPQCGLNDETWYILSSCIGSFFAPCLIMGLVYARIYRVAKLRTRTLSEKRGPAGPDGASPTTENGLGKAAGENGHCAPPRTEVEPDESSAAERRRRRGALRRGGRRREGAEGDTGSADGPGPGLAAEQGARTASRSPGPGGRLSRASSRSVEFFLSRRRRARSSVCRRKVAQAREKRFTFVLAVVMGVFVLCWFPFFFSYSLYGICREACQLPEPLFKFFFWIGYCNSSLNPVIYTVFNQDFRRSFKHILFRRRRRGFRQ
T1 sequence (P19328 whole entry): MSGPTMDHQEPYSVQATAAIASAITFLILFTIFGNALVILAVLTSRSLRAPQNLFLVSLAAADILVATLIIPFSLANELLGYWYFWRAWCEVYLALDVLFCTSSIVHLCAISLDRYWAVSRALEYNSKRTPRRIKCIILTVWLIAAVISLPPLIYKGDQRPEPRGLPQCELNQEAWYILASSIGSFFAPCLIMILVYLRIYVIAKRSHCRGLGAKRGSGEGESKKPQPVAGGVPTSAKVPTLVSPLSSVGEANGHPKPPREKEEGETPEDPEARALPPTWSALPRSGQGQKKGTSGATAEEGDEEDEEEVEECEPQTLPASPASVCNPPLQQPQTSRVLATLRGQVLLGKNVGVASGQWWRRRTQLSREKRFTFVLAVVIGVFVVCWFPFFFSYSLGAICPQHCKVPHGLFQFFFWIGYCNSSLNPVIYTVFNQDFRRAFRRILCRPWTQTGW
T1 sequence (P22909 whole entry): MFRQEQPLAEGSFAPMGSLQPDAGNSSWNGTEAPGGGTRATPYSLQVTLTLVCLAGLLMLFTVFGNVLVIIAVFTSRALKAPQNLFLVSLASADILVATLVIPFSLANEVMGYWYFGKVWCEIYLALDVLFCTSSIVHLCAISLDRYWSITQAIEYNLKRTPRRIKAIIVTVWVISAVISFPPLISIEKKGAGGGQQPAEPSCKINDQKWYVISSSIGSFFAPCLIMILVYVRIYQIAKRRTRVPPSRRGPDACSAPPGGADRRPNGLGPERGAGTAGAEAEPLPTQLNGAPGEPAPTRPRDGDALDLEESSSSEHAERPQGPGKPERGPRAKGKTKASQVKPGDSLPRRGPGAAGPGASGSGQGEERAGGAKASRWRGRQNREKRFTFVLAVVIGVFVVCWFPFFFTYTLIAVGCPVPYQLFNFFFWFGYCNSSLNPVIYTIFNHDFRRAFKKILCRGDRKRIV

Rattus norvegicus [3] = test: The increase in the extracellular levels of DOPAC in the rat ventral hippocampus at a dose of 5.0 mg/kg sc measured by in vivo microdialysis; type: functional; conditions: route subcutaneous
Rattus norvegicus [4] = test: The increase in the extracellular levels of 5-HT in the rat ventral hippocampus at a dose of 5.0 mg/kg sc measured by in vivo microdialysis; type: functional; conditions: route subcutaneous

Compound: COc1cccc2c1N1CCN(C)C[C@@H]1c1ccccc1C2
- Increase (Rattus norvegicus [1]): 200%
- Ki [2]: 73 nM

Compound: COc1cccc2c1N1CCN(C)C[C@H]1c1ccccc1C2
- Ki [2]: 37 nM

Compound: COc1cccc2c1N1CCN(C)CC1c1ccccc1C2 (racemic)
- Increase (Rattus norvegicus [3]): 160%
- Increase (Rattus norvegicus [4]): 200%
